The structures appear in SMILES notation. In brackets after ≈: the same amount, converted by molar mass.

One may read the MIC as the lowest concentration that inhibits growth of the organism. The term MFC denotes the lowest tested concentration that kills the fungus rather than only halting it. One may read the IC50 as the point on the concentration scale where inhibition reaches its midpoint.

For the first test, the system named is Aspergillus fumigatus. Briefly: Antifungal activity against Aspergillus fumigatus ATCC 90906 assessed as fungal growth inhibition incubated for 72 hrs by alamar blue assay. Type of test: functional. Particulars: Aspergillus fumigatus, ATCC 90906, 72 h, read-out: MIC. For orientation: Alamar Blue is a resazurin reagent that responds to reducing activity.
Take `CCCCCCCCCCCCCCC1(O)C(C)=C(C)C2=[N+](CC#N)CCCN21` (centres undefined): the MIC amounted to 6 µM.

Take `CCCCCCCCCCCCCCc1c(C)c(C)cn1CCCN`: the MIC worked out at 19 µM (≈ 6.62 µg/mL).

Take `CCCCCCCCCCCCCCC1(O)C(C)=C(C)C2=[N+](CC(=O)NCCCC)CCCN21` (centres undefined): the MIC is 7.5 µM.

Turning to `CCCCCCCCCCCCCCC1(O)c2ccccc2C2=[N+](C)CCCN21` (centres undefined), the MIC was 35 µM.

The subject of another test is Candida albicans. Briefly: Antifungal activity against Candida albicans ATCC 90028 assessed as fungal growth inhibition incubated for 18 to 24 hrs by alamar blue assay. Type of test: functional. Conditions: Candida albicans, ATCC 90028, time 18-24 hrs; read-out: MIC.
Take `CCCCCCCCCCCCCCC1(O)C(C)=C(C)C2=[N+](CC#N)CCCN21` (centres undefined): the MIC amounted to 10 µM.

As for `CCCCCCCCCCCCCCc1c(C)c(C)cn1CCCN`, the MIC was determined as 24 µM (≈ 8.37 µg/mL).

Take `CCCCCCCCCCCCCCC1(O)C(C)=C(C)C2=[N+](CC(=O)NCCCC)CCCN21` (centres undefined): the MIC turned out to be 7.5 µM.

In the case of `CCCCCCCCCCCCCCC1(O)c2ccccc2C2=[N+](C)CCCN21` (centres undefined), the MIC was 4.3 µM.

A further test concerns Pichia kudriavzevii. Briefly: Fungicidal activity against Candida krusei ATCC 6258 assessed as fungal growth inhibition incubated for 18 to 24 hrs by alamar blue assay. It is filed as functional. Conditions: Pichia kudriavzevii, ATCC 6258, time 18-24 hrs; read-out: MFC.
`CCCCCCCCCCCCCCC1(O)C(C)=C(C)C2=[N+](CC#N)CCCN21` (centres undefined): the MFC was found to be 4.4 µM.

Regarding `CCCCCCCCCCCCCCc1c(C)c(C)cn1CCCN`, the MFC is 12 µM (≈ 4.18 µg/mL).

Turning to `CCCCCCCCCCCCCCC1(O)C(C)=C(C)C2=[N+](CC(=O)NCCCC)CCCN21` (centres undefined), the MFC came to 3.8 µM.

For the compound `CCCCCCCCCCCCCCC1(O)c2ccccc2C2=[N+](C)CCCN21` (centres undefined), the MFC stood at 13 µM.

For a further test, the system named is Pichia kudriavzevii. In words: Antifungal activity against Candida krusei ATCC 6258 assessed as fungal growth inhibition incubated for 18 to 24 hrs by alamar blue assay. It is filed as functional. Particulars: Pichia kudriavzevii, ATCC 6258, time 18-24 hrs; read-out: MIC.
On to `CCCCCCCCCCCCCCC1(O)C(C)=C(C)C2=[N+](CC#N)CCCN21` (centres undefined), for which the minimum inhibitory concentration (MIC) is 3.5 µM.

For `CCCCCCCCCCCCCCc1c(C)c(C)cn1CCCN`, the minimal inhibitory concentration (MIC) turned out to be 12 µM (≈ 4.18 µg/mL).

Regarding `CCCCCCCCCCCCCCC1(O)C(C)=C(C)C2=[N+](CC(=O)NCCCC)CCCN21` (centres undefined), the MIC is 3.8 µM.

With `CCCCCCCCCCCCCCC1(O)c2ccccc2C2=[N+](C)CCCN21` (centres undefined), the MIC was 13 µM.

The next test has as its system Vero. Briefly: Cytotoxicity against African green monkey Vero cells assessed as reduction in cell viability incubated for 48 hrs by neutral red dye based assay. Conditions: Chlorocebus sabaeus, Vero, 48 h. Also on record: species or system Chlorocebus sabaeus.
For the compound `CCCCCCCCCCCCCCC1(O)C(C)=C(C)C2=[N+](CC#N)CCCN21` (centres undefined), the IC50 was above 52 µM.

Take `CCCCCCCCCCCCCCc1c(C)c(C)cn1CCCN`: the IC50 came to 44 µM.

As for `CCCCCCCCCCCCCCC1(O)C(C)=C(C)C2=[N+](CC(=O)NCCCC)CCCN21` (centres undefined), the half-inhibitory concentration (IC50) came to 45 µM.

`CCCCCCCCCCCCCCC1(O)c2ccccc2C2=[N+](C)CCCN21` (centres undefined): the IC50 came to 42 µM.

Another test has as its system Nakaseomyces glabratus. Briefly: Fungicidal activity against Candida glabrata ATCC 90030 assessed as fungal growth inhibition incubated for 18 to 24 hrs by alamar blue assay. Type of test: functional. Particulars: Nakaseomyces glabratus, ATCC 90030, time 18-24 hrs; read-out: MFC.
As for `CCCCCCCCCCCCCCC1(O)C(C)=C(C)C2=[N+](CC#N)CCCN21` (centres undefined), the MFC amounted to 8.7 µM.

`CCCCCCCCCCCCCCc1c(C)c(C)cn1CCCN`: the MFC was determined as 12 µM (≈ 4.18 µg/mL).

With `CCCCCCCCCCCCCCC1(O)C(C)=C(C)C2=[N+](CC(=O)NCCCC)CCCN21` (centres undefined), the MFC turned out to be 5.9 µM.

Take `CCCCCCCCCCCCCCC1(O)c2ccccc2C2=[N+](C)CCCN21` (centres undefined): the MFC is 16 µM.

A further test relates to Cryptococcus neoformans. In words: Antifungal activity against Cryptococcus neoformans ATCC 90113 assessed as fungal growth inhibition incubated for 72 hrs by alamar blue assay. Particulars: Cryptococcus neoformans, ATCC 90113, 72 h, read-out: MIC. It is filed as functional.
On to `CCCCCCCCCCCCCCC1(O)C(C)=C(C)C2=[N+](CC#N)CCCN21` (centres undefined), for which the MIC is 1 µM.

As to `CCCCCCCCCCCCCCc1c(C)c(C)cn1CCCN`, the MIC came to 2.9 µM (≈ 1.01 µg/mL).

Turning to `CCCCCCCCCCCCCCC1(O)C(C)=C(C)C2=[N+](CC(=O)NCCCC)CCCN21` (centres undefined), the MIC turned out to be 1.8 µM.

As for `CCCCCCCCCCCCCCC1(O)c2ccccc2C2=[N+](C)CCCN21` (centres undefined), the MIC amounted to 6.4 µM.

Another test concerns Cryptococcus neoformans. Briefly: Fungicidal activity against Cryptococcus neoformans ATCC 90113 assessed as fungal growth inhibition incubated for 72 hrs by alamar blue assay. Particulars: Cryptococcus neoformans, ATCC 90113, 72 h, read-out: MFC. It is filed as functional.
With `CCCCCCCCCCCCCCC1(O)C(C)=C(C)C2=[N+](CC#N)CCCN21` (centres undefined), the MFC was found to be 1 µM.

On to `CCCCCCCCCCCCCCc1c(C)c(C)cn1CCCN`, for which the MFC was found to be 2.9 µM (≈ 1.01 µg/mL).

On to `CCCCCCCCCCCCCCC1(O)C(C)=C(C)C2=[N+](CC(=O)NCCCC)CCCN21` (centres undefined), for which the MFC worked out at 1.8 µM.

As to `CCCCCCCCCCCCCCC1(O)c2ccccc2C2=[N+](C)CCCN21` (centres undefined), the MFC is 6.4 µM.

A further test relates to Candida albicans. Briefly: Fungicidal activity against Candida albicans ATCC 90028 assessed as fungal growth inhibition incubated for 18 to 24 hrs by alamar blue assay. Type of test: functional. Particulars: Candida albicans, ATCC 90028, time 18-24 hrs; read-out: MFC.
Turning to `CCCCCCCCCCCCCCC1(O)C(C)=C(C)C2=[N+](CC#N)CCCN21` (centres undefined), the MFC amounted to 10 µM.

`CCCCCCCCCCCCCCc1c(C)c(C)cn1CCCN`: the minimum fungicidal concentration (MFC) worked out at 24 µM (≈ 8.37 µg/mL).

As to `CCCCCCCCCCCCCCC1(O)C(C)=C(C)C2=[N+](CC(=O)NCCCC)CCCN21` (centres undefined), the MFC worked out at 10 µM.

For the compound `CCCCCCCCCCCCCCC1(O)c2ccccc2C2=[N+](C)CCCN21` (centres undefined), the MFC is 4.3 µM.

A further test has as its system Nakaseomyces glabratus. In words: Antifungal activity against Candida glabrata ATCC 90030 assessed as fungal growth inhibition incubated for 18 to 24 hrs by alamar blue assay. Type of test: functional. Conditions: Nakaseomyces glabratus, ATCC 90030, time 18-24 hrs; read-out: MIC.
On to `CCCCCCCCCCCCCCC1(O)C(C)=C(C)C2=[N+](CC#N)CCCN21` (centres undefined), for which the MIC came to 6 µM.

For `CCCCCCCCCCCCCCc1c(C)c(C)cn1CCCN`, the MIC came out at 11 µM (≈ 3.83 µg/mL).

As to `CCCCCCCCCCCCCCC1(O)C(C)=C(C)C2=[N+](CC(=O)NCCCC)CCCN21` (centres undefined), the MIC is 5.2 µM.

For `CCCCCCCCCCCCCCC1(O)c2ccccc2C2=[N+](C)CCCN21` (centres undefined), the MIC is 13 µM.

A further test has as its system Aspergillus fumigatus. In words: Fungicidal activity against Aspergillus fumigatus ATCC 90906 assessed as fungal growth inhibition incubated for 72 hrs by alamar blue assay. It is filed as functional. Conditions: Aspergillus fumigatus, ATCC 90906, 72 h, read-out: MFC.
As for `CCCCCCCCCCCCCCC1(O)C(C)=C(C)C2=[N+](CC#N)CCCN21` (centres undefined), the minimal fungicidal concentration (MFC) was determined as 6 µM.

`CCCCCCCCCCCCCCc1c(C)c(C)cn1CCCN`: the MFC turned out to be 19 µM (≈ 6.62 µg/mL).

`CCCCCCCCCCCCCCC1(O)C(C)=C(C)C2=[N+](CC(=O)NCCCC)CCCN21` (centres undefined): the MFC is 7.5 µM.

Take `CCCCCCCCCCCCCCC1(O)c2ccccc2C2=[N+](C)CCCN21` (centres undefined): the MFC came to 35 µM.

The values are drawn from ChEMBL document CHEMBL4828718, “Synthesis and Antifungal Activity Evaluation of Phloeodictine Analogues” (J Nat Prod, 2021).
